Measurements as given in patent US4294842A, “Anti-protozoal oxadiazole derivatives” (Burroughs Wellcome Co., priority 1978, dated 1981).

Columns and labels:
P. berghei = experiment: Inhibition of P. berghei blood parasitaemia in infected mice (oral); format: in vivo; conditions: Plasmodium berghei, 96 h, read-out: Percentage Inhibitions of P. berghei; for inhibition in vivo at 100 mg/kg: 7 × 100 mg/kg, parasitaemia on fourth day vs untreated controls; for inhibition in vivo at 50 mg/kg: 7 × 50 mg/kg
Source text: Groups of five mice were inoculated intraperitoneally with the normal strain of P. berghei. The mice on test received seven oral doses of drug begining on the afternoon of the day of infection then twice a day for the following three days. Blood parasitaemias were estimated on the fourth day and compared with those of the untreated controls.
The results are given in Table 1, the results being expressed as percentage inhibition of P.berghei.

Oral LD50 in mice = conditions: mouse, in vivo, suspension in 0.25% Celacol
Description: The LD50 of the compound of Example 4 was determined in mice by conventional methods, the compound being administered orally as a suspension in 0.25% Celacol.

Eimeria tenella [1] = experiment: Inhibition of Eimeria tenella in monolayer cultures of chick embryo liver cells; format: cell-based; conditions: fixed 90 hours after infection, scale 0 to 4
Description: Monolayer cultures of chick embryo liver cells were seeded onto microtitration plates and treated with the test compound (formulated by suspension in ethanol (0.05 ml) followed by dilution with sterile water (0.95 ml). Sporozoites of Eimeria tenella in culture medium were added and the culture fixed 90 hours after infection. The percentage inhibition compared to controls was determined, the results being expressed on a sacle of 0(0-10% inhibition) to 4(91-100% inhibition). The results are given in Table 2.

Eimeria tenella [2] = experiment: Index of inhibition, 400ppm in vivo (Table 2); conditions: scale 0 to 4

SMILES	inhibition in vivo at 100 mg/kg (P. berghei) [%]	Index of Inhibition (Eimeria tenella [1]; 20μg/ml)	other results
Cc1ccc(SCc2ncon2)cc1 [Example 1, 3-(4-Methylphenylthiomethyl)-1,2,4-oxadiazole]	38		
Brc1ccc(SCc2ncon2)cc1 [Example 3, 3-(4-Bromophenylthiomethyl)-1,2,4-oxadiazole]	71		
c1ccc(SCc2ncon2)cc1 [Example 4, 3-Phenylthiomethyl-1,2,4-oxadiazole]	49		LD50 (Oral LD50 in mice): ~1600 mg/kg
Brc1ccccc1SCc1ncon1 [Example 5, 3-(2-Bromophenylthiomethyl)-1,2,4-oxadiazole]		1	inhibition in vivo at 80 mg/kg (P. berghei; 7 × 80 mg/kg): 2%
COc1ccccc1SCc1ncon1 [Example 6, 3-(2-Methoxyphenylthiomethyl)-1,2,4-oxadiazole]			inhibition in vivo at 50 mg/kg (P. berghei): 5%
c1ccc(Sc2cccc(SCc3ncon3)c2)cc1 [Example 7, 3-(3-Phenylthiophenylthiomethyl)-1,2,4-oxadiazole]	2	1	
Cc1cccc(SCc2ncon2)c1 [Example 8, 3-(3-Methylphenylthiomethyl)-1,2,4-oxadiazole]		3	
Nc1cccc(SCc2ncon2)c1 [Example 9, 3-(3-Aminophenylthiomethyl)-1,2,4-oxadiazole]	34	2	
COc1cccc(SCc2ncon2)c1 [Example 10, 3-(3-Methoxyphenylthiomethyl)-1,2,4-oxadiazole]			Index of Inhibition (Eimeria tenella [1]; 5μg/ml): 4 (91-100% inhibition)
O=[N+]([O-])c1ccc(SCc2ncon2)cc1 [Example 12, 3-(4-Nitrophenylthiomethyl)-1,2,4-oxadiazole]	14	4 (91-100% inhibition)	
COc1ccc(SCc2ncon2)cc1 [Example 13, 3-(4-Methoxyphenylthiomethyl)-1,2,4-oxadiazole]		2	
Nc1ccc(SCc2ncon2)cc1 [Example 14, 3-(4-Aminophenylthiomethyl)-1,2,4-oxadiazole]	41	2	
Fc1ccc(SCc2ncon2)cc1 [Example 15, 3-(4-Fluorophenylthiomethyl)-1,2,4-oxadiazole]		3	inhibition in vivo at 50 mg/kg (P. berghei): 59%
CSc1ccc(SCc2ncon2)cc1 [Example 16, 3-(4-Methylthiophenylthiomethyl)-1,2,4-oxadiazole]	4	2	
Cc1cccc(SCc2ncon2)c1C [Example 17, 3-(2,3-Dimethylphenylthiomethyl)-1,2,4-oxadiazole]	62	2	
Cc1ccc(SCc2ncon2)c(C)c1 [Example 18, 3-(2,4-Dimethylphenylthiomethyl)-1,2,4-oxadiazole]	14	2	
c1ccc2c(SCc3ncon3)cccc2c1 [Example 19, 3-(1-Naphthylthiomethyl)-1,2,4-oxadiazole]			inhibition in vivo at 50 mg/kg (P. berghei): 55%
Clc1ccc(SCc2ncon2)cc1Cl [Example 20, 3-(3,4-Dichlorophenylthiomethyl)-1,2,4-oxadiazole]		3	

SMILES	inhibition in vivo at 100 mg/kg (P. berghei) [%]	Index of Inhibition (Eimeria tenella [1]; 20μg/ml)	other results
Clc1cc(Cl)c(SCc2ncon2)cc1Cl [Example 21, 3-(2,4-5-Trichlorophenylthiomethyl)-1,2,4-oxadiazole]	19	4 (91-100% inhibition)	inhibition in vivo at 20 mg/kg (P. berghei; 7 × 20 mg/kg): 18%
Cc1nc(CSc2ccc(Br)cc2)no1 [Example 22, 3-(4-Bromophenylthiomethyl)-5-methyl-1,2,4-oxadiazole]	46	2	
Cc1nc(CSc2cccc(C)c2C)no1 [Example 23, 3-(2,3-Dimethylphenylthiomethyl)-5-methyl-1,2,4-oxadiazole]		3	
Cc1nc(CSc2ccc([N+](=O)[O-])cc2)no1 [Example 24, 3-(4-Nitrophenylthiomethyl)-5-methyl-1,2,4-oxadiazole]		2	
Cc1nc(CSc2ccc(Cl)cc2)no1 [Example 25, 3-(4-Chlorophenylthiomethyl)-5-methyl-1,2,4-oxadiazole]		2	
Brc1ccc(SCc2noc(CSc3ccc(Br)cc3)n2)cc1 [Example 26, 3,5-Di-(4-bromophenylthiomethyl)-1,2,4-oxadiazole]	99	2	
Clc1ccc(SCc2noc(CSc3ccc(Cl)cc3)n2)cc1 [Example 27, 3,5-Di-(4-chlorophenylthiomethyl)1,2,4-oxadiazole]	47		
Oc1ccccc1SCc1ncon1 [Example 29, 3-(2-Hydroxyphenylthiomethyl)-1,2,4-oxadiazole]	23		
FC(F)(F)c1cccc(SCc2ncon2)c1 [Example 31, 3-(3-Trifluoromethylphenylthiomethyl)-1,2,4-oxadiazole]		4 (91-100% inhibition)	
CCCCc1ccc(SCc2ncon2)cc1 [Example 32, 3-(4-n-Butylphenylthiomethyl)-1,2,4-oxadiazole]		2	
CN(C)c1ccc(SCc2ncon2)cc1 [Example 33, 3-(4-N,N-Dimethylaminophenylthiomethyl)-1,2,4-oxadiazole]	19		
CC(C)(C)c1ccc(SCc2ncon2)cc1 [Example 34, 3-(4-t-Butylphenylthiomethyl)-1,2,4-oxadiazole]	28		
Clc1ccc(SCc2ncon2)cc1 [Example 36, 3-(4-Chlorophenylthiomethyl)-1,2,4-oxadiazole]			Index of Inhibition (Eimeria tenella [2]): 4 (91-100% inhibition)
Cc1ccc(Br)c(SCc2ncon2)c1 [Example 37, 3-(2-Bromo-5-methylphenylthiomethyl)-1,2,4-oxadiazole]		3	Index of Inhibition (Eimeria tenella [1]; 5μg/ml): 2
c1ccc2cc(SCc3ncon3)ccc2c1 [Example 38, 3-(2-Naphthylthiomethyl)-1,2,4-oxadiazole]	21		
Nc1ccccc1SCc1nc(CSc2ccc(Cl)cc2)no1 [Example 40, 5-(2-aminophenylthiomethyl)-3-(4-chlorophenylthiomethyl)-1,2,4-oxadiazole]	18		
Nc1ccc(SCC2=NOCN2)cc1 [Example 44, 3-(4-aminophenylthiomethyl)-4,5-dihydro-1,2,4-oxadiazole]	10		
N#CSc1ccc(SCc2ncon2)cc1 [Example 45, 3-(4-Thiocyanatophenylthiomethyl)-1,2,4-oxadiazole]			Index of Inhibition (Eimeria tenella [1]; 5μg/ml): 2; inhibition in vivo at 10 mg/kg (P. berghei; 7 × 10 mg/kg): 34%
